Laboratory results: patent publication US11357834B2, “Recombinant α-galactosidase A for treatment of Fabry disease” (Amicus Therapeutics, Inc., priority 2017, dated 2022)

Experiments:
[1] = cited from earlier work
[2] = General toxicology NOAEL, rat; set-up: AUC: dose or concentration left out as unconfirmed; conditions: in vivo
[3] = Predicted human migalastat exposure after single IV dose and exposure margins
Source text: (§1) Selection of Doses in the Study: The current single dose levels were selected on the basis of predicted human PK following IV dosing, non-clinical safety margins, and target therapeutic migalastat exposures for efficacy.

[4] = human, in vivo, po, 1250 mg
in vivo = conditions: monkey, 500 mg/kg/day
Source text: as §1

[5] = Phase 1 IV and oral migalastat HCl pharmacokinetics in healthy volunteers; format: in vivo, human
Description: Healthy volunteers received migalastat HCl via the IV route of administration to evaluate safety, tolerability, and pharmacokinetics. Another study was performed to determine the absolute bioavailability of migalastat after an oral capsule dose as compared to an IV administered dose of migalastat HCl in healthy volunteers.
Type of Study: This Phase 1 study was a single-center study consisting of 2 designs. Cohorts 1, 2, and 3 were performed according to a randomized, double-blind, placebo-controlled, single ascending dose (SAD) IV study design to evaluate the safety, tolerability, and PK of IV administered migalastat HCl or IV administered placebo in healthy subjects. Cohort 4 was an open-label, randomized two-way crossover arm designed to assess the absolute bioavailability of orally administered migalastat HCl relative to IV administered migalastat HCl in healthy subjects.
Cohorts 1, 2, 3: Subjects in Cohorts 1, 2, and 3 received IV administered single ascending doses of migalastat HCl. Seven subjects were enrolled into each cohort (5 subjects randomized to migalastat HCl and 2 subjects randomized to placebo). Dosing of Cohorts 1, 2, and 3 was staggered to allow for safety and tolerability review before proceeding with the next group. Therefore, Cohorts 1, 2, and 3 were each divided into 2 sub-groups: Group A (2 subjects randomized to migalastat HCl and 1 subject randomized to placebo) and Group B (3 subjects randomized to migalastat HCl and 1 subject randomized to placebo). Subjects in Group B were dosed the day following completion of Group A dosing. Except for Cohort 3B, which was dosed 31 days after Cohort 3A because an interim PK review was performed on emerged data from Cohort 3A.
Cohort 4 was randomized such that 5 subjects received the oral formulation and 5 subjects received the IV formulation during Period 1, followed by the alternate formulation during Period 2. • *During Period 1, all Day −1 through Day 3 assessments were performed. ** The washout period was 7 days. *** During Period 2, subjects repeated all Day −1 through Day 3 assessments.
Subjects enrolled in Cohorts 1, 2, and 3 were randomized to receive one of the following doses of migalastat HCl (n=5) or placebo (n=2):

GL-3 and plasma lyso-Gb3 [6] = assay: Repeat administration efficacy, two bi-weekly IV administrations (Example 9); format: in vivo, Gla KO mice; conditions: enzyme alone, 1 to 10 mg/kg
Description: The efficacy of rhα-Gal A 01-003 with and without migalastat and Fabrazyme (agalsidase beta) were compared. Enzyme was administered via a bolus infusion into Gla KO mice with or without co-formulation with 3 mg/kg migalastat. ˜16 week old male Gla KO mice (n=8; 72 in total) were given two bi-weekly IV administrations.

GL-3 and plasma lyso-Gb3 [7] = assay: Single bolus IV administration efficacy, necropsy 7 days after dose (Example 10); format: in vivo, Gla KO mice
Description: The efficacy of rhα-Gal A 01-003 with and without migalastat and Fabrazyme (agalsidase beta) were compared. Enzyme was administered via a single bolus infusion into Gla KO mice with or without co-formulation with migalastat. ˜18 week old male Gla KO mice (7 per group) were given a single bolus IV administration and necropsies were performed 7 days after dose. The treatment groups are shown in Table 15 and the results are shown in FIGS. 21A-21D and Tables 16-19.

GL-3 and plasma lyso-Gb3 [8] = assay: Substrate reduction seven days after single administration (Example 6); format: in vivo, Gla KO mice; conditions: 3 mg/kg enzyme
Description: The effect on substrate reduction when combining these enzymes in a co-formulation with migalastat was also assessed. […]
In addition to assessment of enzyme activity in tissues, the degree of substrate reduction seven days post-administration was determined.

GL-3 = GL-3 one week after single IV administration (Example 7); format: in vivo, Gla KO mice; conditions: 1 mg/kg enzyme IV, one week post-administration
Description: Gla KO mice were administered 1 mg/kg of enzyme IV and GL-3 measured one week post-administration.

Question: Which exposure linearity ([1]; oral administrations, to 1250 mg) does the source give for `Cl.OC[C@H]1NC[C@H](O)[C@@H](O)[C@H]1O` [Migalastat HCl, migalastat HCl] here?
Answer: linear exposures

Question: And the “tissue uptake of active α-Gal A into skin” value ([1]; phase 2a, 23 Fabry patients, single oral 150 mg co-administered with 0.2, 0.5, and 1.0 mg/kg agalsidase)?
Answer: improved tissue uptake of active α-Gal A into skin

Question: And the AUC [2]?
Answer: 249 µg·h/mL

Question: And the “Cmax at Rat NOAEL” value ([2]; 1500 μg/kg/day)?
Answer: 23.4 µg/mL

Question: What about the “Fold Cover to AUC from human oral 1250 mg, Max” value ([3]; 0.3 mg/kg IV) of the same compound?
Answer: 62

Question: What about the “Fold Cover to AUC from human oral 1250 mg, Median” value ([3]; 0.3 mg/kg IV) of the same compound?
Answer: 39

Question: What about the “Fold Cover to AUC from human oral 1250 mg, Min” value ([3]; 0.3 mg/kg IV) of the same compound?
Answer: 15.5

Question: What about the “Fold Cover to Cmax from human oral 1250 mg, Max” value ([3]; 0.3 mg/kg IV) of the same compound?
Answer: 61

Question: And the “Fold Cover to Cmax from human oral 1250 mg, Median” value ([3]; 0.3 mg/kg IV)?
Answer: 36

Question: What about the “Fold Cover to Cmax from human oral 1250 mg, Min” value ([3]; 0.3 mg/kg IV) of the same compound?
Answer: 2.6

Question: What about the “Fold Cover to NOAEL AUC, Monkey” value ([3]; 0.3 mg/kg IV) of the same compound?
Answer: 165

Question: And the “Fold Cover to NOAEL AUC, Rat” value ([3]; 0.3 mg/kg IV)?
Answer: 134

Question: What about the “Fold Cover to NOAEL Cmax, Monkey” value ([3]; 0.3 mg/kg IV) of the same compound?
Answer: 68

Question: What about the “Fold Cover to NOAEL Cmax, Rat” value ([3]; 0.3 mg/kg IV) of the same compound?
Answer: 65

Question: What about the “Fold Cover to AUC from human oral 1250 mg, Max” value ([3]; 10.0 mg/kg IV) of the same compound?
Answer: 1.89

Question: What about the “Fold Cover to AUC from human oral 1250 mg, Median” value ([3]; 10.0 mg/kg IV) of the same compound?
Answer: 1.19

Question: What about the “Fold Cover to AUC from human oral 1250 mg, Min” value ([3]; 10.0 mg/kg IV) of the same compound?
Answer: 0.47

Question: What about the “Fold Cover to Cmax from human oral 1250 mg, Max” value ([3]; 10.0 mg/kg IV) of the same compound?
Answer: 1.81

Question: And the “Fold Cover to Cmax from human oral 1250 mg, Median” value ([3]; 10.0 mg/kg IV)?
Answer: 1.07

Question: What about the “Fold Cover to Cmax from human oral 1250 mg, Min” value ([3]; 10.0 mg/kg IV) of the same compound?
Answer: 0.08

Question: What about the “Fold Cover to NOAEL AUC, Monkey” value ([3]; 10.0 mg/kg IV) of the same compound?
Answer: 4.98

Question: And the “Fold Cover to NOAEL AUC, Rat” value ([3]; 10.0 mg/kg IV)?
Answer: 4.05

Question: And the “Fold Cover to NOAEL Cmax, Monkey” value ([3]; 10.0 mg/kg IV)?
Answer: 2.02

Question: And the “Fold Cover to NOAEL Cmax, Rat” value ([3]; 10.0 mg/kg IV)?
Answer: 1.93

Question: What about the “Maximum observed individual AUC” value [4] of the same compound?
Answer: 115.9 µg·h/mL

Question: What about the “Maximum observed individual Cmax” value [4] of the same compound?
Answer: 21.9 µg/mL

Question: What about the “Median observed individual AUC” value [4] of the same compound?
Answer: 73.2 µg·h/mL

Question: What about the “Median observed individual Cmax” value [4] of the same compound?
Answer: 13.0 µg/mL

Question: And the “Minimum observed individual AUC” value [4]?
Answer: 28.9 µg·h/mL

Question: What about the “Minimum observed individual Cmax” value [4] of the same compound?
Answer: 4.78 µg/mL

Question: And the “maximum exposure (AUC)” value [4]?
Answer: 116 µg·h/mL

Question: And the AUC (in vivo)?
Answer: 306 µg·h/mL

Question: What about the “maximum arithmetic mean plasma concentration, IV dosing relative to oral dosing” value ([5]; 150 mg IV vs 150 mg oral) of the same compound?
Answer: approximately 2 fold

Question: What about the “time of maximum arithmetic mean plasma concentration after start of infusion” value ([5]; IV 150 mg, 2-hour infusion) of the same compound?
Answer: 2 h

Question: And the “dose dependence of mean plasma concentration-time profiles” value ([5]; increasing IV doses 0.3 to 10 mg/kg)?
Answer: clear dose-dependent increase in plasma concentrations

Question: What about the “time of maximum arithmetic mean plasma concentration after start of infusion” value ([5]; single 2-hour IV infusion, 0.3 to 10 mg/kg) of the same compound?
Answer: 2 h

Question: Which results are given for “Fabrazyme: homodimeric recombinant human α-Gal A marketed by Genzyme under the name Fabrazyme”?
Answer: GL-3 in heart and kidney, dose-response (GL-3 and plasma lyso-Gb3 [6]): good dose-response; GL-3 in skin and plasma lyso-GB3, dose-response (GL-3 and plasma lyso-Gb3 [6]): good dose-response; GL-3 levels Heart (GL-3 and plasma lyso-Gb3 [7]; 1 mg/kg): 183.23 μg/g tissue; GL-3 levels Kidney (GL-3 and plasma lyso-Gb3 [7]; 1 mg/kg): 443 μg/g tissue; GL-3 levels Skin (GL-3 and plasma lyso-Gb3 [7]; 1 mg/kg): 1465 μg/g tissue; Plasma lyso-Gb3 levels (GL-3 and plasma lyso-Gb3 [7]; 1 mg/kg): 122 ng/mL; GL-3 levels Heart (GL-3 and plasma lyso-Gb3 [7]; 10 mg/kg): 53.20 μg/g tissue; GL-3 levels Kidney (GL-3 and plasma lyso-Gb3 [7]; 10 mg/kg): 281 μg/g tissue; GL-3 levels Skin (GL-3 and plasma lyso-Gb3 [7]; 10 mg/kg): 207 μg/g tissue; Plasma lyso-Gb3 levels (GL-3 and plasma lyso-Gb3 [7]; 10 mg/kg): 29.5 ng/mL; GL-3 levels Heart (GL-3 and plasma lyso-Gb3 [7]; 25 mg/kg): 21.10 μg/g tissue; GL-3 levels Kidney (GL-3 and plasma lyso-Gb3 [7]; 25 mg/kg): 203 μg/g tissue; GL-3 levels Skin (GL-3 and plasma lyso-Gb3 [7]; 25 mg/kg): 102 μg/g tissue; Plasma lyso-Gb3 levels (GL-3 and plasma lyso-Gb3 [7]; 25 mg/kg): 18.1 ng/mL

Question: Which results are given for “rhα-Gal A 04-023: recombinant human α-galactosidase A produced by CHO cell clone 04-023”?
Answer: plasma lyso-Gb3 compared to Fabrazyme alone (1 mg/kg) (GL-3 and plasma lyso-Gb3 [8]; seven days): significantly lower levels of plasma lyso-Gb3; reduction of GL-3 in heart tissue compared to 1 mg/kg Fabrazyme (GL-3 and plasma lyso-Gb3 [8]; seven days (FIG. 15A)): significantly enhanced reduction of GL-3; reduction in GL-3 in kidney (GL-3 and plasma lyso-Gb3 [8]; seven days (FIG. 15B)): enhanced substrate reduction; GL-3 in skin compared to Fabrazyme alone (1 mg/kg) (GL-3 and plasma lyso-Gb3 [8]; seven days (FIG. 15C)): significantly lower level of GL-3 in skin

Question: For “rhα-Gal A 01-003: recombinant human α-galactosidase A produced by CHO cell clone 01-003”, which “GL-3 in heart and kidney, dose-response” value (GL-3 and plasma lyso-Gb3 [6]) is on record?
Answer: good dose-response

Question: And the “GL-3 in skin and plasma lyso-GB3, dose-response” value (GL-3 and plasma lyso-Gb3 [6])?
Answer: good dose-response

Question: And the “α-Gal A substrate (GL-3) in heart and kidney” value (GL-3)?
Answer: able to reduce α-Gal A substrate in heart and kidney

Question: And the “GL-3 levels Heart” value (GL-3 and plasma lyso-Gb3 [7]; 10 mg/kg)?
Answer: 30.30 μg/g tissue

Question: What about the “GL-3 levels Kidney” value (GL-3 and plasma lyso-Gb3 [7]; 10 mg/kg) of the same compound?
Answer: 277 μg/g tissue

Question: What about the “GL-3 levels Skin” value (GL-3 and plasma lyso-Gb3 [7]; 10 mg/kg) of the same compound?
Answer: 149 μg/g tissue

Question: What about the “Heart GL-3 % reduction compared to Fabrazyme (10 mg/kg)” value (GL-3 and plasma lyso-Gb3 [7]; 10 mg/kg) of the same compound?
Answer: 43.05%

Question: What about the “Kidney GL-3 % reduction compared to Fabrazyme (10 mg/kg)” value (GL-3 and plasma lyso-Gb3 [7]; 10 mg/kg) of the same compound?
Answer: 1.42%

Question: And the “Plasma lyso-Gb3 % reduction compared to Fabrazyme (10 mg/kg)” value (GL-3 and plasma lyso-Gb3 [7]; 10 mg/kg)?
Answer: 2.71%

Question: What about the “Plasma lyso-Gb3 levels” value (GL-3 and plasma lyso-Gb3 [7]; 10 mg/kg) of the same compound?
Answer: 28.7 ng/mL

Question: What about the “Skin GL-3 % reduction compared to Fabrazyme (10 mg/kg)” value (GL-3 and plasma lyso-Gb3 [7]; 10 mg/kg) of the same compound?
Answer: 28.02%

Question: What about the “overall substrate reduction (GL-3 and lyso-Gb3)” value (GL-3 and plasma lyso-Gb3 [7]; rhα-Gal A 10 mg/kg) of the same compound?
Answer: greater substrate reduction than an equivalent dose of Fabrazyme
